By IC50 is commonly meant the concentration needed to halve the response being measured.

The experiment deals with human complement factor B (CVF-Bb complex) (Homo sapiens (Human), UniProt P00751). Description: Human Complement Factor B ELISA Assay. The experiment is classed as biochemical. As for the experimental part:
Human Complement Factor B ELISA Assay
CVF-Bb complex prepared from purified cobra venom factor (1 μM), recombinant human complement factor B (expressed in drosophila cells and purified using standard methods) and human complement factor D (expressed in E. Coli, refolded and purified using standard methods). CVF-Bb complex at 3 nM concentration was incubated with test compound at various concentrations for 1 hour at room temperature in PBS pH 7.4 containing 10 mM MgCl2 and 0.05% (w/v) CHAPS. Human complement C3 substrate purified from plasma was added to a final concentration of 1 μM. After 1 hour incubation at room temperature, the enzyme reaction was stopped by addition of a cocktail of concentrated pan-protease inhibitors. The product of the reaction, C3a, was quantified by means of an enzyme-linked-immunosorbent assay. IC50 values were calculated from percentage of inhibition of CVF-Bb activity as a function of test compound concentration.
For orientation: In an ELISA, binding on a coated surface is turned into a signal by an enzyme label.

Where [1] appears, read: CVF-Bb complex 3 nM, 1 hour preincubation with compound at room temperature, human C3 substrate 1 μM, C3a quantified by ELISA, read-out: Factor B IC50.

Counter-ions that a name gives are not always drawn. Like-named read-outs stand apart in the source and are kept apart here.

`COc1cc2c(N)nc(N3CCN(C(=O)C[C@@H](N)c4ccccc4F)C[C@@H]3C)nc2c(F)c1OC` [Example 59, (R)-3-Amino-1-[(S)-4-(4-amino-8-fluoro-6,7-dimethoxy-quinazolin-2-yl)-3-methyl-piperazin-1-yl]-3-(2-fluoro-phenyl)-propan-1-one hydrochloride]: the half-maximal inhibitory concentration (IC50) was determined as 160 nM.

Compound `COc1cc2c(N)nc(N3CCN(C(=O)C[C@@H](N)c4ccc(F)cc4)C[C@@H]3C)nc2c(F)c1OC` [Example 60, (R)-3-Amino-1-[(S)-4-(4-amino-8-fluoro-6,7-dimethoxy-quinazolin-2-yl)-3-methyl-piperazin-1-yl]-3-(4-fluoro-phenyl)-propan-1-one hydrochloride] gave a concentration for half-maximal inhibition (IC50) of 20 nM.

With `COc1cc2c(N)nc(N3CCN(C(=O)C[C@@H](N)c4ccc(C(F)(F)F)cc4)C[C@@H]3C)nc2c(F)c1OC` [Example 61, (R)-3-Amino-1-[(S)-4-(4-amino-8-fluoro-6,7-dimethoxy-quinazolin-2-yl)-3-methyl-piperazin-1-yl]-3-(4-trifluoromethyl-phenyl)-propan-1-one hydrochloride], half-maximal inhibition (IC50) was put at 40 nM.

`COc1cc2c(N)nc(N3CCN(C(=O)C[C@@H](N)Cc4ccccc4)C[C@@H]3C)nc2c(F)c1OC` [Example 62, (S)-3-Amino-1-[(S)-4-(4-amino-8-fluoro-6,7-dimethoxy-quinazolin-2-yl)-3-methyl-piperazin-1-yl]-4-phenyl-butan-1-one hydrochloride] registered an IC50 of 2250 nM.

Turning to `COc1cc2c(N)nc(N3CCN(C(=O)C[C@@H](N)Cc4ccncc4)C[C@@H]3C)nc2c(F)c1OC` [Example 63, (S)-3-Amino-1-[(S)-4-(4-amino-8-fluoro-6,7-dimethoxy-quinazolin-2-yl)-3-methyl-piperazin-1-yl]-4-pyridin-4-yl-butan-1-one hydrochloride], 7320 nM corresponded to half-maximal inhibition (IC50).

`CC[C@H]1CN(C(=O)C[C@@H](N)c2ccc(C#N)cc2)CCN1c1nc(N)c2cc(OC)c(OC)c(F)c2n1` [Example 64, 4-{(R)-1-Amino-3-[(S)-4-(4-amino-8-fluoro-6,7-dimethoxy-quinazolin-2-yl)-3-ethyl-piperazin-1-yl]-3-oxo-propyl}-benzonitrile hydrochloride] yielded an IC50 of 7 nM.

`CC[C@H]1CN(C(=O)C[C@@H](N)c2ccc(F)cc2)CCN1c1nc(N)c2cc(OC)c(OC)c(F)c2n1` [Example 65, (R)-3-Amino-1-[(S)-4-(4-amino-8-fluoro-6,7-dimethoxy-quinazolin-2-yl)-3-ethyl-piperazin-1-yl]-3-(4-fluoro-phenyl)-propan-1-one hydrochloride] gave an IC50 of 30 nM.

On to `CC[C@H]1CN(C(=O)C[C@@H](N)c2ccc(C(F)(F)F)cc2)CCN1c1nc(N)c2cc(OC)c(OC)c(F)c2n1` [Example 66, (R)-3-Amino-1-[(S)-4-(4-amino-8-fluoro-6,7-dimethoxy-quinazolin-2-yl)-3-ethyl-piperazin-1-yl]-3-(4-trifluoromethyl-phenyl)-propan-1-one hydrochloride], for which the concentration for half-maximal inhibition (IC50) is 90 nM.

Regarding `CCC[C@H]1CN(C(=O)C[C@@H](N)c2ccc(C#N)cc2)CCN1c1nc(N)c2cc(OC)c(OC)c(F)c2n1` [Example 67, 4-{(R)-1-Amino-3-[(S)-4-(4-amino-8-fluoro-6,7-dimethoxy-quinazolin-2-yl)-3-propyl-piperazin-1-yl]-3-oxo-propyl}-benzonitrile hydrochloride], the IC50 was determined as 10 nM.

Compound `CCC[C@H]1CN(C(=O)C[C@@H](N)c2ccc(C(F)(F)F)cc2)CCN1c1nc(N)c2cc(OC)c(OC)c(F)c2n1` [Example 68, (R)-3-Amino-1-[(S)-4-(4-amino-8-fluoro-6,7-dimethoxy-quinazolin-2-yl)-3-propyl-piperazin-1-yl]-3-(4-trifluoromethyl-phenyl)-propan-1-one hydrochloride] had an IC50 of 60 nM.

Turning to `COc1cc2c(N)nc(N3CCN(C(=O)C[C@@H](N)c4ccc(F)cc4)C[C@@H]3c3ccccc3)nc2c(F)c1OC` [Example 69, (R)-3-Amino-1-[(S)-4-(4-amino-8-fluoro-6,7-dimethoxy-quinazolin-2-yl)-3-phenyl-piperazin-1-yl]-3-(4-fluoro-phenyl)-propan-1-one hydrochloride], the half-maximal inhibitory concentration (IC50) came out at 7 nM.

Regarding `COCCOc1c(OC)cc2c(N)nc(N3CCN(C(=O)C[C@@H](N)c4ccc(C#N)cc4)CC3)nc2c1F` [Example 70, 4-((R)-1-Amino-3-{4-[4-amino-8-fluoro-6-methoxy-7-(2-methoxy-ethoxy)-quinazolin-2-yl]-piperazin-1-yl}-3-oxo-propyl)benzonitrile], the 50% inhibitory concentration (IC50) under setting [1] was found to be 110 nM.

As to `COCCOc1c(OC)cc2c(N)nc(N3CCN(C(=O)C[C@@H](N)c4ccc(C#N)cc4)C[C@@H]3C)nc2c1F` [Example 71], the half-maximal inhibitory concentration (IC50) under setting [1] was 70 nM.

For the compound `CN[C@H](CC(=O)N1CCN(c2nc(N)c3cc(OC)c(OC)c(F)c3n2)CC1)c1ccccc1` [Example 72, (R)-1-[4-(4-Amino-8-fluoro-6,7-dimethoxy-quinazolin-2-yl)-piperazin-1-yl]-3-methylamino-3-phenyl-propan-1-one], the half-maximal inhibitory concentration (IC50) under setting [1] stood at 230 nM.

`COc1cc2c(N)nc(N3C[C@@H](C)N(C(=O)C[C@@H](N)c4ccccc4)C[C@@H]3C)nc2c(F)c1OC` [Example 73, (R)-3-Amino-1-[(2R,5S)-4-(4-amino-8-fluoro-6,7-dimethoxy-quinazolin-2-yl)-2,5-dimethyl-piperazin-1-yl]-3-phenyl-propan-1-one]: under setting [1], the half-inhibitory concentration (IC50) amounted to 60 nM.

`COc1cc2c(N)nc(N3C[C@@H](C)N(C(=O)C[C@@H](N)c4ccc(F)cc4)C[C@@H]3C)nc2c(F)c1OC` [Example 74, (R)-3-amino-1-[(2R,5S)-4-(4-amino-8-fluoro-6,7-dimethoxy-quinazolin-2-yl)-2,5-dimethyl-piperazin-1-yl]-3-(4-fluorophenyl)-propan-1-one]: the IC50 under setting [1] was found to be 50 nM.

In the case of `COc1cc2c(N)nc(N3CCN(C(=O)C[C@@H](N)c4ccccc4)CC3)nc2c(C#N)c1OC` [Example 75, 4-Amino-2-[4-((R)-3-amino-3-phenyl-propionyl)-piperazin-1-yl]-6,7-dimethoxy-quinazoline-8-carbonitrile], the IC50 under setting [1] amounted to 760 nM.

In the case of `COc1cc2c(N)nc(N3CCN(C(=O)C[C@@H](N)c4ccc(F)cc4)CC3)nc2c(C#N)c1OC` [Example 76, 4-Amino-2-{4-[(R)-3-amino-3-(4-fluoro-phenyl)-propionyl]-piperazin-1-yl}-6,7-dimethoxy-quinazoline-8-carbonitrile], the half-inhibitory concentration (IC50) under setting [1] worked out at 100 nM.

Turning to `CN[C@H](CC(=O)N1CCN(c2nc(N)c3cc(OC)c(OC)c(F)c3n2)CC1)c1ccc(C#N)cc1` [Example 77, (R)-4-(3-(4-(4-amino-8-fluoro-6,7-dimethoxyquinazolin-2-yl)piperazin-1-yl)-1-(methylamino)-3-oxopropyl)benzonitrile], the IC50 under setting [1] came to 4 nM.

As to `CN[C@H](CC(=O)N1CCN(c2nc(N)c3cc(OC)c(OC)c(F)c3n2)CC1)C1CCCCC1` [Example 78, (R)-1-(4-(4-amino-8-fluoro-6,7-dimethoxyquinazolin-2-yl)piperazin-1-yl)-3-cyclohexyl-3-(methylamino)propan-1-one], the concentration for half-maximal inhibition (IC50) under setting [1] amounted to 80 nM.

Consider `[2H]C([2H])([2H])N[C@H](CC(=O)N1CCN(c2nc(N)c3cc(OC)c(OC)c(F)c3n2)CC1)c1ccccc1` [Example 79, (R)-1-[4-(4-Amino-8-fluoro-6,7-dimethoxy-quinazolin-2-yl)-piperazin-1-yl]-3-d^3-methylamino-3-phenyl-propan-1-one hydrochloride], for which the concentration for half-maximal inhibition (IC50) under setting [1] came out at 50 nM.

These data come from patent publication US9452990B2, “Complement pathway modulators and uses thereof” (NOVARTIS AG, priority 2012, dated 2016).
